In US20230310467A1 (priority 2022, published 2023):

Assay: Stability by UV spectroscopy after storage under normal conditions and stress tests
Assay type: physicochemical
Details: stress / rapid test conditions

## CCC(CC)COC(=O)[C@H](C)N[P@](=O)(OC[C@H]1O[C@@](C#N)(c2ccc3c(N)ncnn23)[C@H](O)[C@@H]1O)Oc1ccccc1 [RDV, remdesivir]
  stability of the solution according to UV spectroscopic data: limitedly stable
